Experimental data from patent US20060069132A1, “Azolecarboxamide herbicides” (priority 2004, published 2006).

Experiments:
corn = test: Test C pre-/postemergence herbicide test; format: in vivo, Zea mays
Procedure, shortened: (§1)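 Seeds were planted and sprayed preemergence with test chemicals in a non-phytotoxic solvent mixture containing surfactant; postemergence treatments went onto plants 2 to 18 cm tall (1- to 4-leaf stage). After 12 to 14 days in a greenhouse, injury was rated visually against untreated controls on a 0–100 scale.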

[1] = test system: common (oilseed) sunflower; test: Test C pre-/postemergence herbicide test; format: in vivo, Helianthus annuus; conditions: for Plant response rating, Sunflower / Plant response rating (0 = no effect, 100 = complete control), Sunflower: preemergence
Procedure, shortened: as §1

blackgrass = test: Test B postemergence herbicide test; format: in vivo, Alopecurus myosuroides; conditions: for Plant response rating, Blackgrass: visual rating after 13 to 15 days
Procedure, shortened: (§2)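 Scale 0–100: zero equals no visible effect, 100 complete control, judged by eye relative to controls. Timing: 13 to 15 days in greenhouse post-treatment. Growth stage at spraying: two leaves (paddy) or one to four leaves, 2–18 cm (postemergence).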

woolly cupgrass = test: Test C pre-/postemergence herbicide test; format: in vivo, Eriochloa villosa
Procedure, shortened: as §1

large crabgrass = test: Test A pre-/postemergence herbicide test; format: in vivo, Digitaria sanguinalis
Procedure, shortened: (§3)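 Seeds sown in sandy loam received a preemergence directed soil spray of compound in non-phytotoxic solvent with surfactant; postemergence plants (2–10 cm, one- to two-leaf stage) were sprayed to runoff at the same time. After ~10 days in greenhouse, injury was rated visually versus untreated controls (0 = no effect, 100 = complete control).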

barnyardgrass = test: Test A pre-/postemergence herbicide test; format: in vivo, Echinochloa crus-galli
Procedure, shortened: as §3

giant foxtail = test: Test A pre-/postemergence herbicide test; format: in vivo, Setaria faberi
Procedure, shortened: as §3

cocklebur = test: Test C pre-/postemergence herbicide test; format: in vivo, Xanthium strumarium; conditions: for Cocklebur plant response rating: 500 g ai/ha
Procedure, shortened: as §1

ducksalad [2] = test: Test B flooded paddy test; format: in vivo, Heteranthera limosa; conditions: 1000 g ai/ha, scale 0 to 100 (0 no effect, 100 complete control)
Procedure, shortened: as §2

ducksalad [3] = test: Test C flooded paddy test; format: in vivo, Heteranthera limosa
[4] = 31 g ai/ha, preemergence, scale 0 to 100
[5] = 125 g ai/ha, scale 0 (no effect) to 100 (complete control), visual, 12 to 14 days, preemergence
[6] = 250 g ai/ha, scale 0 to 100 (0 no effect, 100 complete control), visual, 12 to 14 days, preemergence
[7] = Postemergence, 250 g ai/ha, scale 0 to 100, 0 no effect, 100 complete control
[8] = postemergence, 125 g ai/ha, scale 0 to 100
[9] = postemergence, 62 g ai/ha, scale 0 to 100
[10] = 125 g ai/ha, scale 0 (no effect) to 100 (complete control), visual, 12 to 14 days
[11] = Postemergence, 500 g ai/ha, scale 0 (no effect) to 100 (complete control)
[12] = Postemergence, 500 g ai/ha, 0 to 100 scale, 0 no effect, 100 complete control
[13] = Postemergence, 2000 g ai/ha, 0 to 100 scale, 0 no effect, 100 complete control
[14] = Preemergence, 500 g ai/ha, visual rating, 0 to 100 scale (0 no effect, 100 complete control)
[15] = Preemergence, 2000 g ai/ha, visual rating, 0 to 100 scale (0 no effect, 100 complete control)
[16] = Postemergence, 500 g ai/ha, scale 0 to 100
[17] = Postemergence, 125 g ai/ha, scale 0 to 100, 0 no effect, 100 complete control
[18] = Preemergence, 500 g ai/ha, scale 0 to 100, 0 no effect, 100 complete control
[19] = Preemergence, 2000 g ai/ha, 0 to 100 scale, 0 no effect, 100 complete control
[20] = Preemergence, scale 0 to 100, 0 no effect, 100 complete control
[21] = 62 g ai/ha, preemergence, scale 0 to 100
[22] = 250 g ai/ha, scale 0-100, preemergence
[23] = 500 g ai/ha, scale 0 to 100 (0 no effect, 100 complete control), visual, 12 to 14 days, preemergence

What does the source list for `C=Cn1nc(C(C)(C)C)cc1C(=O)Nc1cccc(C(C)=NO)c1` [Compound 114]?
Plant response rating, Corn (corn; [4]): 10; Plant response rating (0 = no effect, 100 = complete control), Corn (corn; 62 g ai/ha, preemergence): 10; Plant response rating, Corn (corn; [5]): 10; Plant response rating, Corn (corn; [6]): 10; Plant response rating, Corn (corn; [7]): 40; Plant response rating, Corn (corn; [8]): 30; Plant response rating, Corn (corn; [9]): 30; Plant response rating, Sunflower ([1]; 31 g ai/ha, scale 0 to 100): 30; Plant response rating (0 = no effect, 100 = complete control), Sunflower ([1]; 62 g ai/ha): 30; Plant response rating, Sunflower [1, 10]: 30; Plant response rating, Blackgrass (blackgrass; [11]): 30; Blackgrass plant response rating (blackgrass; postemergence, 125 g ai/ha, visual rating, scale 0 (no effect) to 100 (complete control)): 10; Plant response rating, Cupgrass, Woolly (woolly cupgrass; [4]): 0; Plant response rating, Cupgrass, Woolly (woolly cupgrass; [5]): 10; Plant response rating, Cupgrass, Woolly (woolly cupgrass; [6]): 30; Plant response rating, Cupgrass, Woolly (woolly cupgrass; [7]): 70; Plant response rating, Cupgrass, Woolly (woolly cupgrass; [8]): 70; Plant response rating, Cupgrass, Woolly (woolly cupgrass; [9]): 70; Crabgrass, Large plant response rating (large crabgrass; [12]): 40; Plant response rating, Crabgrass, Large (large crabgrass; [13]): 60; Crabgrass, Large plant response rating (large crabgrass; [14]): 40; Crabgrass, Large plant response rating (large crabgrass; [15]): 85; Barnyardgrass plant response rating (barnyardgrass; [12]): 30; Plant response rating, Barnyardgrass (barnyardgrass; [13]): 40; Barnyardgrass plant response rating (barnyardgrass; [14]): 25; Barnyardgrass plant response rating (barnyardgrass; [15]): 40; Foxtail, Giant plant response rating (giant foxtail; [12]): 50; Plant response rating, Foxtail, Giant (giant foxtail; [13]): 55; Foxtail, Giant plant response rating (giant foxtail; [14]): 30; Foxtail, Giant plant response rating (giant foxtail; [15]): 45; Plant response rating, Cocklebur (cocklebur; [4]): 0; Plant response rating (0 = no effect, 100 = complete control), Cocklebur (cocklebur; 62 g ai/ha, preemergence): 20; Plant response rating, Cocklebur (cocklebur; [5]): 20; Plant response rating, Cocklebur (cocklebur; [6]): 30; Plant response rating, Cocklebur (cocklebur; [7]): 30; Plant response rating, Cocklebur (cocklebur; [8]): 30; Plant response rating, Cocklebur (cocklebur; postemergence, 31 g ai/ha, scale 0 to 100): 30; Plant response rating, Cocklebur (cocklebur; [9]): 30; Ducksalad plant response rating (ducksalad [2]; visual rating, 13 to 15 days): 80

For `C=CCNC(=O)c1cccc(NC(=O)c2cc(C(C)(C)C)nn2CC)c1` [Compound 46], which “Plant response rating (0 = no effect, 100 = complete control), Corn” value (corn; 62 g ai/ha, preemergence) is on record?
The value was 0.

What about the “Plant response rating, Corn” value (corn; [5]) of the same compound?
Its value is 0.

And the “Plant response rating, Corn” value (corn; [6])?
Its value is 10.

And the “Corn plant response rating” value (corn; [16])?
The value was 80.

And the “Plant response rating, Corn” value (corn; [17])?
Its value is 80.

What about the “Plant response rating, Corn” value (corn; [7]) of the same compound?
Its value is 80.

What about the “Corn plant response rating” value (corn; [18]) of the same compound?
The value was 10.

What about the “Plant response rating, Corn” value (corn; [9]) of the same compound?
Its value is 80.

What about the “Plant response rating (0 = no effect, 100 = complete control), Sunflower” value ([1]; 62 g ai/ha) of the same compound?
The value was 0.

And the “Plant response rating, Sunflower” value [1, 10]?
The value was 10.

What about the “Plant response rating, Sunflower” value ([1]; 250 g ai/ha, scale 0 to 100 (0 no effect, 100 complete control), visual, 12 to 14 days) of the same compound?
The value was 10.

And the “Sunflower plant response rating” value [1, 18]?
Its value is 10.

And the “Blackgrass plant response rating” value (blackgrass; Postemergence, 125 g ai/ha, scale 0 (no effect) to 100 (complete control))?
The value was 10.

What about the “Plant response rating, Blackgrass” value (blackgrass; [11]) of the same compound?
The value was 20.

And the “Plant response rating (0 = no effect, 100 = complete control), Cupgrass, Woolly” value (woolly cupgrass; 62 g ai/ha, preemergence)?
The value was 10.

What about the “Plant response rating, Cupgrass, Woolly” value (woolly cupgrass; [5]) of the same compound?
Its value is 10.

And the “Plant response rating, Cupgrass, Woolly” value (woolly cupgrass; [6])?
Its value is 30.

What about the “Cupgrass, Woolly plant response rating” value (woolly cupgrass; [16]) of the same compound?
Its value is 70.

And the “Plant response rating, Cupgrass, Woolly” value (woolly cupgrass; [17])?
Its value is 60.

And the “Plant response rating, Cupgrass, Woolly” value (woolly cupgrass; [7])?
The value was 70.

And the “Cupgrass, Woolly plant response rating” value (woolly cupgrass; [18])?
The value was 80.

What about the “Plant response rating, Cupgrass, Woolly” value (woolly cupgrass; [9]) of the same compound?
Its value is 40.

And the “Plant response rating, Crabgrass, Large” value (large crabgrass; [12])?
The value was 75.

And the “Plant response rating, Crabgrass, Large” value (large crabgrass; [13])?
Its value is 90.

And the “Crabgrass, Large plant response rating” value (large crabgrass; [14])?
The value was 65.

What about the “Crabgrass, Large plant response rating” value (large crabgrass; [19]) of the same compound?
The value was 90.

And the “Plant response rating, Barnyardgrass” value (barnyardgrass; [12])?
The value was 100.

And the “Plant response rating, Barnyardgrass” value (barnyardgrass; [13])?
The value was 100.

And the “Barnyardgrass plant response rating” value (barnyardgrass; [14])?
Its value is 90.

And the “Barnyardgrass plant response rating” value (barnyardgrass; [19])?
The value was 100.

What about the “Plant response rating, Foxtail, Giant” value (giant foxtail; [12]) of the same compound?
The value was 80.

What about the “Plant response rating, Foxtail, Giant” value (giant foxtail; [13]) of the same compound?
Its value is 100.

And the “Foxtail, Giant plant response rating” value (giant foxtail; [14])?
Its value is 90.

What about the “Foxtail, Giant plant response rating” value (giant foxtail; [19]) of the same compound?
The value was 100.

What about the “Plant response rating (0 = no effect, 100 = complete control), Cocklebur” value (cocklebur; 62 g ai/ha, preemergence) of the same compound?
The value was 0.

What about the “Plant response rating, Cocklebur” value (cocklebur; [5]) of the same compound?
Its value is 40.

What about the “Plant response rating, Cocklebur” value (cocklebur; [6]) of the same compound?
Its value is 90.

And the “Cocklebur plant response rating” value (cocklebur; Postemergence, scale 0 to 100)?
The value was 90.

What about the “Plant response rating, Cocklebur” value (cocklebur; [17]) of the same compound?
The value was 70.

What about the “Plant response rating, Cocklebur” value (cocklebur; [7]) of the same compound?
Its value is 70.

What about the “Cocklebur plant response rating” value (cocklebur; [20]) of the same compound?
The value was 90.

And the “Plant response rating, Cocklebur” value (cocklebur; [9])?
The value was 60.

What about the “Ducksalad plant response rating” value (ducksalad [2]; visual rating, 13 to 15 days) of the same compound?
Its value is 90.

Which results are given for `CCNC(=O)c1cccc(NC(=O)c2cc(C3(C)CC3)nn2CC)c1` [Compound 306]?
Plant response rating, Corn (corn; [21]): 5; Plant response rating, Corn (corn; [5]): 10; Plant response rating, Corn (corn; [22]): 20; Plant response rating, Corn (corn; [23]): 50; Plant response rating, Sunflower ([1]; 62 g ai/ha, scale 0 to 100): 0; Plant response rating, Sunflower ([1]; 250 g ai/ha, scale 0-100): 0; Plant response rating, Sunflower ([1]; 500 g ai/ha, scale 0 to 100 (0 no effect, 100 complete control), visual, 12 to 14 days): 0; Blackgrass plant response rating (blackgrass; 125 g ai/ha, visual rating, scale 0 (no effect) to 100 (complete control), postemergence): 10; Blackgrass plant response rating (blackgrass; postemergence, 500 g ai/ha, scale 0 to 100, 0 is no effect, 100 is complete control): 30; Plant response rating, Cupgrass, Woolly (woolly cupgrass; [21]): 5; Plant response rating, Cupgrass, Woolly (woolly cupgrass; [5]): 15; Plant response rating, Cupgrass, Woolly (woolly cupgrass; [22]): 30; Plant response rating, Cupgrass, Woolly (woolly cupgrass; [23]): 50; Ducksalad plant response rating (ducksalad [3]; 62 g ai/ha, scale 0 to 100): 50; Ducksalad plant response rating (ducksalad [3]; 125 g ai/ha, scale 0 to 100 (0 no effect, 100 complete control)): 80; Ducksalad plant response rating (ducksalad [3]; 250 g ai/ha, scale of 0 to 100, 0 is no effect, 100 is complete control): 80; Plant response rating, Ducksalad (ducksalad [3]; 500 g ai/ha, visual rating after 12 to 14 days, scale 0 to 100 (0 no effect, 100 complete control)): 90; Plant response rating, Cocklebur (cocklebur; [21]): 0; Plant response rating, Cocklebur (cocklebur; [5]): 0; Plant response rating, Cocklebur (cocklebur; [22]): 0; Cocklebur plant response rating (cocklebur; [20]): 5; Ducksalad plant response rating (ducksalad [2]): 80
